Data taken from paper PMC12040169 (PLOS Biology, 2025).

assay: in vitro; settings: human, hela cells, % viability

Row | SMILES | viability at 28.5 h, 10 µM
1 | FC(F)(F)Oc1cccc(-c2cncc(NCc3ccncc3)n2)c1 [CBK065926] | 104%
2 | CC(C)c1ccc(S(=O)(=O)NCCC2CCN(Cc3ccccc3)CC2)cc1 [CBK043456] | 94.5%
3 | Cc1nc2sc3c(c2c2nc(CCC(=O)O)nn12)CC(C)(C)OC3 [CBK269168] | 81.4%
4 | Fc1ccc(CN(Cc2ccco2)C2CCN(c3ccc4c(c3)OCO4)CC2)cc1 [CBK286197] | 88.7%
5 | CCc1nn(CC(=O)NC(C)(C)C)c(=O)c2cc3sccc3n12 [CBK284056] | 73.8%
6 | COc1nccnc1OC1CCN(CC(N)=O)CC1 [CBK084248] | 86.7%
7 | Nc1ncc(CCCN2CCOCC2)c(N)n1 [CBK025981] | 125%
8 | C/C(=N\Nc1cccc2cccnc12)C(C)(C)C [CBK021957] | 113%
9 | Cc1nc2c(c(N3CCOCC3)n1)OCC(=O)N2 [CBK287939] | 94.5%
10 | CN1CCN(C(=O)CN(c2cccc([N+](=O)[O-])c2)S(=O)(=O)c2ccccc2)CC1 [CBK264121] | 87.6%
11 | O=C(c1cccs1)n1ccc(-c2ccc3c(c2)CCO3)n1 [CBK006090] | 97.6%
12 | CN1C(=O)C2(CC(=O)N(CC3CCCCC3)C2=O)c2cc(F)ccc21 (stereo not shown) [CBK075257] | 106%
13 | O=C(NC1CCCCC1)N[C@H]1CO[C@H]2[C@@H]1OC[C@@H]2Nc1nccc(C2CCCC2)n1 [CBK289531] | 82.7%
14 | NC(=O)CN(Cc1ccc(Cl)cc1)S(=O)(=O)c1ccccc1 [CBK264149] | 99.5%
15 | CN(C)CCN(C)c1cncc(-c2cccc(N)c2)n1 [CBK065270] | 87.3%
16 | FC(F)(F)c1ccc(OC2CCNCC2)nc1 [CBK113287] | 83%
17 | CCN(CC)c1c(C)nc2ccc(C(=O)N3CCN(C)CC3)cn12 [CBK145955] | 91.5%
18 | CC1CCN(Cc2ccc(-c3nnn(CC(=O)NCc4ccc(S(C)(=O)=O)cc4)n3)cc2)CC1 [CBK144152C] | 94.3%
19 | CCCc1[nH]nc(O)c1CCc1ccccc1 [CBK075083] | 108%
20 | O=C(CSCc1ccc(Br)cc1)Nc1cccnc1 [CBK268543] | 104%
21 | COC(=O)[C@H]1CN(C(=O)c2cccnc2)C[C@@H]1c1ccc(F)cc1 [CBK283788] | 92.1%

Row | SMILES | viability at 28.5 h, 10 µM
22 | O=C(NC(=S)Nc1cccc(-c2nc3ncccc3o2)c1)c1cc([N+](=O)[O-])ccc1N1CCOCC1 [CBK268756] | 92.7%
23 | Cn1ccnc1C(NC(=O)c1ccccn1)c1ccc(F)c(F)c1 (stereo not shown) [CBK283783] | 91.6%
24 | O=C(c1ccc(N2CC=CCC2)nc1)N1CCC(N2CCOCC2)CC1 [CBK307334] | 80%
25 | CCN1CCN(c2nc(N)c3ccccc3n2)CC1 [CBK268561C] | 82.4%
26 | O=C(C[n+]1ccccc1)c1ccccc1Cl [CBK016283B] | 112%
27 | O=c1nc(NS(=O)(=O)c2ccccc2Br)c(F)c[nH]1 [CBK067573] | 76.6%
28 | CCNC(=S)NC(=Nc1nc(C)cc(C)n1)NCc1cccnc1 [CBK267212] | 97.2%
29 | Cc1ccc2nc(C)cc(NC(=O)c3ccncc3)c2c1 [CBK287801] | 81.5%
30 | COc1cc(C(=O)N2CCC3(CC2)CC(=O)c2ccc(C)cc2O3)ccc1O [CBK166045] | 86.6%
31 | CC(=O)c1ccc(-n2ncc(-c3ccc(F)cc3)n2)cc1 [CBK112889] | 100%
32 | O=C(O)CCCC(=O)N(c1ccccc1)c1ccccc1 [CBK286901] | 80.2%
33 | COc1cc(-c2nc(N)cc3ccccc23)cc(OC)c1OC [CBK085726] | 102%
34 | Cc1nccn1C1CCCN(C(C)C(=O)NC2(C#N)CCCCC2)C1 (stereo not shown) [CBK304194] | 87.3%
35 | Cn1[nH]c(CO)c(Cc2c(Cl)cccc2Cl)c1=O [CBK092278T] | 95.4%
36 | CN1CC(C(=O)N(C)Cc2nc(-c3ccccc3)no2)NC1=O (stereo not shown) [CBK306727] | 108%
37 | CN(C(=O)CN1CCOC(Cn2cccn2)C1)C1(C#N)CCCCC1 (stereo not shown) [CBK305335] | 97.3%
38 | Cc1nnc(SCC(=O)N/N=C/c2cc([N+](=O)[O-])ccc2O)n1-c1ccccc1 [CBK262768] | 89.5%
39 | Cc1ccc2sc(NC(=O)c3ccc(Cl)s3)nc2c1C [CBK291144] | 103%
40 | CN(CCO)S(=O)(=O)c1cccc(C(=O)O)c1 [CBK266657] | 89.4%
41 | CS(=O)(=O)N1CCC(C(=O)NCCN2CCOCC2)CC1 [CBK270151] | 100%
42 | O=[N+]([O-])c1cnc(NS(=O)(=O)c2ccc(Oc3ccccc3)cc2)s1 [CBK067535] | 102%

Row | SMILES | viability at 28.5 h, 10 µM
43 | CC(=O)N(C)c1nc(-c2ccco2)ccc1C(=O)Nc1cc(C)nn1C [CBK106356] | 89.3%
44 | COc1ccc(CN2CCN(Cc3ccc4c(c3)OCO4)CC2)c(OC)c1OC [CBK033874] | 91.4%
45 | CCSc1ccccc1-c1nc2c(=O)n(C)c(-c3ccc(CN4CCCC4)cc3)cc2o1 [CBK200426T] | 77.9%
46 | O=C(Cn1cnc2c(oc3ccccc32)c1=O)Nc1ccc2c(c1)OCO2 [CBK287557] | 118%
47 | CCOc1cc(C)c(Cl)cc1S(=O)(=O)NCc1ccncc1 [CBK269954] | 85.8%
48 | O=C(Nc1ccc(F)cc1)c1ccc(NS(=O)(=O)Cc2ccccc2[N+](=O)[O-])cc1 [CBK050405] | 93%
49 | Cn1nccc1NS(=O)(=O)c1cc(C(F)(F)F)cc(C(F)(F)F)c1 [CBK062090] | 92.6%
50 | COCc1nnc(Sc2cc(NC(C)C)ncn2)s1 [CBK093784] | 89.3%
51 | COc1cnc(-c2cnn(C)c2)c(NC(=O)c2ccco2)n1 [CBK145329] | 103%
52 | CC12CCC(=O)N1CCCN2Cc1cnn(-c2ccc(F)cc2)c1 (stereo not shown) [CBK281819] | 94.2%
53 | Cc1cc(C(=O)NC(Cc2c[nH]c3ccccc23)C(=O)O)c(C)o1 (stereo not shown) [CBK286560] | 86.5%
54 | CN1CCC(N2C[C@H](O)C[C@H]2c2nc(-c3ccc4c(c3)OCO4)no2)CC1 [CBK288931] | 93.6%
55 | O=C(c1cccs1)N1C[C@H](c2ccc(F)cc2)[C@H]2CN(Cc3ccccc3)CC[C@H]21 [CBK285544] | 91.8%
56 | COC(=O)c1ccc(Nc2cccc(-c3cccc(N)c3)n2)cc1OC [CBK037619] | 102%
57 | CCN(CC)CCNC(=O)C1CCCCN1S(=O)(=O)c1ccc(C)cc1 (stereo not shown) [CBK101088] | 89.9%
58 | O=C(O)c1cnc(Cl)c(Br)c1 [CBK026874] | 83.7%
59 | CCC(=O)N1CCc2cc(C(O)CN3CCCCC3)ccc21 (stereo not shown) [CBK283111] | 98.3%
60 | Nc1nc(N)c2ncn([C@H]3C[C@@H](O)[C@@H](CO)O3)c2n1 [CBK201208] | 97.4%
61 | O=C(CSc1ncnc2c1oc1ccccc12)Nc1ccccc1F [CBK287393] | 87.3%
62 | CCOC(=O)C1(C2CCCCC2)CCN(C(=O)/C=C/c2ccc3c(c2)OCO3)CC1 [CBK136924] | 92.8%
63 | CC(=O)N1CCN(c2ccccc2NC(=O)c2ccc(OCc3ccccc3)cc2)CC1 [CBK269775] | 103%

same assay, conditions: human, hela cells, % viability, bulk resorufin, single well

Row | SMILES | viability at 28.5 h, 10 µM
64 | CC(=O)c1c(C)[nH]c(C(=O)N2CCC(C#N)(c3ccccc3)CC2)c1C [CBK091404] | 93.3%
